Source: US11548893B2 (priority 2017, dated 2023)
Where two headings read alike, the source gives them in different places.

What was measured:
in vitro [1] = conditions: human, Caco-2
[2] = tested on: MARV (full-length glycoprotein, VSV pseudotype); test: microbe, parasite or virus in culture; type: cell-based, Marburg marburgvirus; conditions: Vesicular stomatitis virus, Vero, 24 h, read-out: EC50 Pseudotype Assays MARV
Cyp-p450 1A2 = Cyp-p450 1A2 (Homo sapiens, UniProt P05177)
Cyp-p450 2C19 = Cyp-p450 2C19 (Homo sapiens, UniProt P33261)
in vitro [3] = conditions: African green monkey, Cytotox CC50
[4] = microsomes, 1 h
EBOV (Mayinga) = test: microbe, parasite or virus in culture; type: cell-based, Ebola virus
Ebola Zaire [5] = test: microbe, parasite or virus in culture; conditions: Zaire ebolavirus, HeLa, read-out: Ebola Zaire EC50
Sudan Gulu [6] = test: organism not typed; conditions: read-out: Sudan Gulu EC50
Ebola Zaire [7] = test: microbe, parasite or virus in culture; conditions: Zaire ebolavirus, read-out: Ebola Zaire EC50
[8] = microsomes, 1 h; remark: listed apart in the source
in vitro [9] = conditions: human
P-gp = P-gp (Homo sapiens, UniProt P08183)
[10] = tested on: EBOV (mucin-deleted glycoprotein, VSV pseudotype); test: microbe, parasite or virus in culture; type: cell-based, Zaire ebolavirus; conditions: Zaire ebolavirus, Vero, 24 h, read-out: EC50 Pseudotype Assays EBOV
[11] = tested on: SUDV (glycoprotein, VSV pseudotype); test: microbe, parasite or virus in culture; type: cell-based, Sudan ebolavirus; conditions: Vesicular stomatitis virus, Vero, 24 h, read-out: EC50 Pseudotype Assays SUDV
Cyp-p450 3A4 = Cyp-p450 3A4 (Homo sapiens, UniProt P08684)
Sudan Gulu [12] = test: organism not typed; conditions: HeLa, read-out: Sudan Gulu EC50
Ebola Zaire [13] = tested on: Ebola Zaire
Ebola Zaire [14] = test: microbe, parasite or virus in culture; conditions: Zaire ebolavirus, read-out: Ebola Zaire EC90
[15] = tested on: BDBV (mucin-deleted glycoprotein, VSV pseudotype); test: microbe, parasite or virus in culture; type: cell-based, Bundibugyo ebolavirus; conditions: Vesicular stomatitis virus, Vero, 24 h, read-out: EC50 Pseudotype Assays BDBV
physchem = conditions: pH 7, kinetic from dmso stock
in vitro [16] = conditions: African green monkey
[17] = pH 7
Cyp-p450 2D6 = Cyp-p450 2D6 (Homo sapiens, UniProt P10635)
Cyp-p450 2B6 = Cyp-p450 2B6 (Homo sapiens, UniProt P20813)
[18] = tested on: EBOV_FL: full-length Ebola Zaire GP (VSV pseudotype); test: microbe, parasite or virus in culture; type: cell-based, Zaire ebolavirus; conditions: Zaire ebolavirus, Vero, 24 h, read-out: EC50 Pseudotype Assays EBOV_FL
in vitro [19] = conditions: mouse
Cyp-p450 2C8 = Cyp-p450 2C8 (Homo sapiens, UniProt P10632)
[20] = microsomes, 1 h; remark: listed apart in the source
[21] = microsomes, 1 h; remark: listed apart in the source
Cyp-p450 2C9 = Cyp-p450 2C9 (Homo sapiens, UniProt P11712)
Cyp-p450 2C9, sequence (P11712 whole entry): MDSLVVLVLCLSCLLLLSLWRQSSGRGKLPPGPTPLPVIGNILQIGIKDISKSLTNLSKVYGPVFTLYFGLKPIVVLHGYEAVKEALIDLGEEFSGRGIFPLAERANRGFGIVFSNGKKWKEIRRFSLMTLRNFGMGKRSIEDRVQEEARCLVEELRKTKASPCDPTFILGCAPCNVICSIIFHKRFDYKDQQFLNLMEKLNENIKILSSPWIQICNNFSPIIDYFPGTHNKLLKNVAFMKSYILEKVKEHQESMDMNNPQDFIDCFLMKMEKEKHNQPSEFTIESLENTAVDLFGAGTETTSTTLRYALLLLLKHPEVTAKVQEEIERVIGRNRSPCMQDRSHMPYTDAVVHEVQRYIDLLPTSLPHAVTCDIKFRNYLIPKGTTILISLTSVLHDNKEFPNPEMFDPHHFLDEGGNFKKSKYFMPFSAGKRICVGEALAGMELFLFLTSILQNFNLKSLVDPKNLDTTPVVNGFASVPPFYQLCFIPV

Cyp-p450 3A4, sequence (P08684 whole entry): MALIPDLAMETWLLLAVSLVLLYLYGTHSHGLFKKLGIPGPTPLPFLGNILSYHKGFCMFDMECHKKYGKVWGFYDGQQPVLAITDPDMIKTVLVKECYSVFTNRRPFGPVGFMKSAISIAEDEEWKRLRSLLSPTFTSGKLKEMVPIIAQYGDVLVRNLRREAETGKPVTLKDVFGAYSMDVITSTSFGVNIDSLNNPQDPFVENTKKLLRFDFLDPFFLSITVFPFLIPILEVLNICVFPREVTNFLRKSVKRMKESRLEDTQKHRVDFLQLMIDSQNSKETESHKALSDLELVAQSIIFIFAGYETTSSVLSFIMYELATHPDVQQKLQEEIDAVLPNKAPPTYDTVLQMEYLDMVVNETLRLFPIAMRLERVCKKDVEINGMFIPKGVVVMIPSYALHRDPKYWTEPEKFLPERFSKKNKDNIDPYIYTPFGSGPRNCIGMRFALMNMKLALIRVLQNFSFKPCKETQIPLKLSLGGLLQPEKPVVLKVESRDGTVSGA
P-gp, sequence (P08183 whole entry): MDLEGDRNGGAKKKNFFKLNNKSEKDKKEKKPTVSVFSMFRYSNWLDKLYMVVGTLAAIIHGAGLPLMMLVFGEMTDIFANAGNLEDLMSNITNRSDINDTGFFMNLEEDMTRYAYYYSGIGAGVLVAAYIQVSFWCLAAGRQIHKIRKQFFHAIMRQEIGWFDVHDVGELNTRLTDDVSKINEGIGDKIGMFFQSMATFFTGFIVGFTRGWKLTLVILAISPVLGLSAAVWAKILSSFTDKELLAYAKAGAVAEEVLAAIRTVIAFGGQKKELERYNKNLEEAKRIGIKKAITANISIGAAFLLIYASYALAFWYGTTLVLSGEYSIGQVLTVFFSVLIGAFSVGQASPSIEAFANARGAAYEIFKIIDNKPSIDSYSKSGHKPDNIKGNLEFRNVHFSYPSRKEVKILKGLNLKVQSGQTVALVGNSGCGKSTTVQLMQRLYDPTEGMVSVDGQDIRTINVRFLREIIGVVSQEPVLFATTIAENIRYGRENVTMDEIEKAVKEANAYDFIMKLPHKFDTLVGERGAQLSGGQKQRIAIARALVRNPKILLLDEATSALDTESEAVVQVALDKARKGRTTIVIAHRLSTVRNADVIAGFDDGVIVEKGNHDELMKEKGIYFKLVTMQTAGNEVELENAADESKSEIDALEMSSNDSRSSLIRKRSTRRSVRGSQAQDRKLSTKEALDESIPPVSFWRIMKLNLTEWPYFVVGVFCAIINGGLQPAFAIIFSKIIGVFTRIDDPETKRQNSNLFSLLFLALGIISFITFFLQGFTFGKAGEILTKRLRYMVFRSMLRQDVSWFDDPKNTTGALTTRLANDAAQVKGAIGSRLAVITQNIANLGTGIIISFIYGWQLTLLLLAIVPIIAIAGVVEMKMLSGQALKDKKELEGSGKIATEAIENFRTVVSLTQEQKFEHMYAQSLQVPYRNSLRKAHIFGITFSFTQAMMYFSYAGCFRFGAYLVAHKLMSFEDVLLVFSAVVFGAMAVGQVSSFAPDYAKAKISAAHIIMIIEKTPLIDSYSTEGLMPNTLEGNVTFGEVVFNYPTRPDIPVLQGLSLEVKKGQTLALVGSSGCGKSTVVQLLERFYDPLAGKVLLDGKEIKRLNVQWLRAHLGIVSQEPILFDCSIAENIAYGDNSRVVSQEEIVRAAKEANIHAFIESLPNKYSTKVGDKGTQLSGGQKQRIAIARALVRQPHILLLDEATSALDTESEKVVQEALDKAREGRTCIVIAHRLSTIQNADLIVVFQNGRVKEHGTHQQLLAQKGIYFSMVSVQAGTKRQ
Cyp-p450 2C19, sequence (P33261 whole entry): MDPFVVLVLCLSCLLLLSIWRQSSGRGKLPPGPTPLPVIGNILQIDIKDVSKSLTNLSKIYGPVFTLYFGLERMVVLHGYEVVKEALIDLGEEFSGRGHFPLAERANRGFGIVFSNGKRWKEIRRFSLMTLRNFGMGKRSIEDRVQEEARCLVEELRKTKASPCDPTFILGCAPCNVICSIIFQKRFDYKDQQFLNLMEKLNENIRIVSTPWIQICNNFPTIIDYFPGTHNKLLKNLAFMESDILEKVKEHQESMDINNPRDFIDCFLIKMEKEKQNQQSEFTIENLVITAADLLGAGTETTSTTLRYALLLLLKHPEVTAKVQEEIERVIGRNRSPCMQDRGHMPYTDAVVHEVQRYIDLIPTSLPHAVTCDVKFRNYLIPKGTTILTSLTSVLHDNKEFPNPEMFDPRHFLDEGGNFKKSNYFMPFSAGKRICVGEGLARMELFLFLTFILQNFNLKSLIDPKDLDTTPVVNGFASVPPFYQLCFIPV
Cyp-p450 1A2, sequence (P05177 whole entry): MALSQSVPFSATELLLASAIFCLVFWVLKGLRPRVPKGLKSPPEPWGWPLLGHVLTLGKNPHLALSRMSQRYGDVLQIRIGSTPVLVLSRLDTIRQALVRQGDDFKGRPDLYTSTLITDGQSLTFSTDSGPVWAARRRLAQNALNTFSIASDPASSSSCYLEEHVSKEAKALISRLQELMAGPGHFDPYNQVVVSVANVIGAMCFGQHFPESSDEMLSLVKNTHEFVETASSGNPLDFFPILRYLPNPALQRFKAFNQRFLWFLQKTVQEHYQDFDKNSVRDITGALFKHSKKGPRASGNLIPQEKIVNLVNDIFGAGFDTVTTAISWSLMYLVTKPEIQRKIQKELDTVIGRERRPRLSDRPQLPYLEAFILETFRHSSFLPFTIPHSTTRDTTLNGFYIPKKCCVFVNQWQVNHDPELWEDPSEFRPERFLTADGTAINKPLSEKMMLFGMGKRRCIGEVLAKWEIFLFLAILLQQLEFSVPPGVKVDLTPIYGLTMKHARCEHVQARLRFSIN
Cyp-p450 2C8, sequence (P10632 whole entry): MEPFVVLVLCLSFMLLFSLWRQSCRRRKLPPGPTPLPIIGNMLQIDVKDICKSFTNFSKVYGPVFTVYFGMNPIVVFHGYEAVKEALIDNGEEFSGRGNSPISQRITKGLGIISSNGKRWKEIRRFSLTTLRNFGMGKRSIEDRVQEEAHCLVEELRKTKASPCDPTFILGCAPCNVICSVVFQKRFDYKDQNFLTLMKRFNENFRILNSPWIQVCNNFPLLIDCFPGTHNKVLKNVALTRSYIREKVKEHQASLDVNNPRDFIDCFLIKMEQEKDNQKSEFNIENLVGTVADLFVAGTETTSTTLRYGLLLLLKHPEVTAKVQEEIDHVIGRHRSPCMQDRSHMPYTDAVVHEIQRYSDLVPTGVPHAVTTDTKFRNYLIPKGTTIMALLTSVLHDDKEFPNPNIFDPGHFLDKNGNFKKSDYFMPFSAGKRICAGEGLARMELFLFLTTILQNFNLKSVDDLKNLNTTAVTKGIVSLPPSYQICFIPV
Cyp-p450 2B6, sequence (P20813 whole entry): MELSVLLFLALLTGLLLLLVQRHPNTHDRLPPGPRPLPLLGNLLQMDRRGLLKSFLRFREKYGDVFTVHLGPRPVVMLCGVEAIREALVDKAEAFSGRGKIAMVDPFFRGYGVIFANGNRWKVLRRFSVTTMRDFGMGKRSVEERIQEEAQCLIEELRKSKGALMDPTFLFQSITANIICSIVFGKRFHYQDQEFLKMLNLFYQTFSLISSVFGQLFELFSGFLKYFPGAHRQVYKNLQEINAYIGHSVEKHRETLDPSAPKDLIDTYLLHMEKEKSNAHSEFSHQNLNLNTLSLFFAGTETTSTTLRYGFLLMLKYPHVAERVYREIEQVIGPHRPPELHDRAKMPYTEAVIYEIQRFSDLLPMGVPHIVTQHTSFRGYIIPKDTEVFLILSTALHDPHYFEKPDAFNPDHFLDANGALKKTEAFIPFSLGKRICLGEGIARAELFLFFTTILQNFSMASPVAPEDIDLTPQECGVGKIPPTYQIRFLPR
Cyp-p450 2D6, sequence (P10635 whole entry): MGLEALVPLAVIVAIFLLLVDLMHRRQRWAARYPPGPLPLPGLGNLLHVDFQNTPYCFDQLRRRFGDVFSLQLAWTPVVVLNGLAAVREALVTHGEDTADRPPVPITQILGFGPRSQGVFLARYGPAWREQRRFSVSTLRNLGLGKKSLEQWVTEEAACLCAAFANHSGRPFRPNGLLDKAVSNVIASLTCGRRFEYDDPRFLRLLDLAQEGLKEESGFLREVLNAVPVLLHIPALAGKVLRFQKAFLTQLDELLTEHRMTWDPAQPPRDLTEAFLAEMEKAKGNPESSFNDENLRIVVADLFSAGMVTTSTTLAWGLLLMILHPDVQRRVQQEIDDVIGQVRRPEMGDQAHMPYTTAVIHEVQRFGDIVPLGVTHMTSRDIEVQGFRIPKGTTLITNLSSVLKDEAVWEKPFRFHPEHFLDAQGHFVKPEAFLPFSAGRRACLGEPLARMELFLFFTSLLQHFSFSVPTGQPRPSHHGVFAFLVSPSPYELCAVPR

Structure (SMILES): C[C@]12CC3CC(C(=O)N[C@H]4CC[C@@H](N)CC4)(C1)C[C@@](c1ccccc1)(C3)C2.Cl [Example B2]
- Papp A→B (in vitro [1]): 3.07 ×10⁻⁶ cm/s
- Papp B→A (in vitro [1]): 7.86 ×10⁻⁶ cm/s
- efflux ratio (in vitro [1]): 2.71
- EC50 [2]: 6450 nM
- IC50 (Cyp-p450 1A2): > 100000 nM
- IC50 (Cyp-p450 2C19): 51000 nM
- CC50 (in vitro [3]): 19100 nM
- Liver Microsome Stability % Remaining after 60 Minutes, Mouse [4]: 71%
- SI50 (CC50/EC50) (EBOV (Mayinga)): 282
- EC50 (EBOV (Mayinga); Zaire ebolavirus, Vero): 240 nM
- EC50 (Ebola Zaire [5]): 440 nM
- EC50 (Sudan Gulu [6]): 1100 nM
- EC50 (Ebola Zaire [7]): 240 nM
- Liver Microsome Stability % Remaining after 60 Minutes, Monkey [8]: 85%
- fraction unbound (in vitro [9]): 0.039
- P-gp substrate ID Caco-2 Permeability (+Verapamil) Paap Mean A > B (P-gp): 6.19 10^−6 cm s^−1
- P-gp substrate ID Caco-2 Permeability (+Verapamil) Paap Mean B > A (P-gp): 6.83 10^−6 cm s^−1
- EC50 [10]: 15 nM
- EC50 [11]: 277 nM
- IC50 (Cyp-p450 3A4; CYP Inhibition 3A4 (Midazolam)): > 100000 nM
- IC50 (Cyp-p450 3A4; CYP Inhibition 3A4 (Testosterone)): 88000 nM
- EC50 (Sudan Gulu [12]): 180 nM
- Ebola Zaire SI (CC50/EC90) (Ebola Zaire [13]): 72.5
- EC90 (Ebola Zaire [14]): 800 nM
- EC50 [15]: 67 nM
- solubility (physchem): > 500 µM
- CC50 (in vitro [16]): 67600 nM
- Turbidimetric solubility [17]: >500 µM
- IC50 (Cyp-p450 2D6): > 100000 nM
- IC50 (Cyp-p450 2B6): > 100000 nM
- EC50 [18]: 10 nM
- fraction unbound (in vitro [19]): 0.011
- IC50 (Cyp-p450 2C8): > 100000 nM
- Liver Microsome Stability % Remaining after 60 Minutes, Human [20]: 100%
- Liver Microsome Stability % Remaining after 60 Minutes, Guinea Pig [21]: 100%
- IC50 (Cyp-p450 2C9): > 100000 nM
